Results published in US20260374756A1, “HETEROCYCLIC COMPOUNDS AS INHIBITORS OF MONOACYLGLYCEROL LIPASE (MAGL)” (Hoffmann-La Roche Inc., priority 2022, published 2026).
pIC50: −log10 of the molar value.

Molecular target: T1, hMAGL (Homo sapiens, UniProt Q99685)
T1 sequence (Q99685 1-303): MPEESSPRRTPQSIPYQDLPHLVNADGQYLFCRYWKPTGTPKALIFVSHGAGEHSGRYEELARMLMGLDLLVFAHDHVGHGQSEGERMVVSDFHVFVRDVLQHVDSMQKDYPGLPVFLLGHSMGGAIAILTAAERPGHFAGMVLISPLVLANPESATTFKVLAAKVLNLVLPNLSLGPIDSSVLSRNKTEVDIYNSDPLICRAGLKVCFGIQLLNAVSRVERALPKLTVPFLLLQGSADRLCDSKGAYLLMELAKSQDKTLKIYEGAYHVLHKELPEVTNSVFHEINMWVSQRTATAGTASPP
Experiment: 2-AG assay: MAGL inhibition, hydrolysis of 2-arachidonoylglycerol to arachidonic acid followed by mass spectrometry
Type: biochemical
How it was run: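 MAGL preincubated with compound 15 min at RT in 50 mM Tris, 1 mM EDTA, 0.01% Tween-20, 2.5% DMSO; reaction started with 8 μM 2-AG (final), […], 30 min at RT. Quenched with acetonitrile containing d8-arachidonic acid; arachidonic acid quantified by RapidFire SPE-triple quad MS as arachidonic acid/d8 ratio.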

| Compound | pIC50 |
| --- | --- |
| Cc1onc(C2CC2)c1CN1CC2(C1)CN(C(=O)N1CC3(CC(n4cnc(C5CC5)n4)C3)C1)C2 [Example 268, [6-[(3-cyclopropyl-5-methyl-isoxazol-4-yl)methyl]-2,6-diazaspiro[3.3]heptan-2-yl]-[6-(3-cyclopropyl-1,2,4-triazol-1-yl)-2-azaspiro[3.3]heptan-2-yl]methanone] | 8.06 |
| O=C(N1CC2(CC(Cn3cc(C(F)(F)F)nn3)C2)C1)N1CC2(CC(c3cc(C4CC4)n[nH]3)C2)C1 [Example 103, [6-(3-cyclopropyl-1H-pyrazol-5-yl)-2-azaspiro[3.3]heptan-2-yl]-[6-[[4-(trifluoromethyl)triazol-1-yl]methyl]-2-azaspiro[3.3]heptan-2-yl]methanone] | 8.79 |
| O=C(N1CC2(CC(Cc3n[nH]c(C(F)(F)F)n3)C2)C1)N1CC2(CC(n3cnc(C(F)F)n3)C2)C1 [Example 320, [6-[3-(difluoromethyl)-1,2,4-triazol-1-yl]-2-azaspiro[3.3]heptan-2-yl]-[6-[[5-(trifluoromethyl)-1H-1,2,4-triazol-3-yl]methyl]-2-azaspiro[3.3]heptan-2-yl]methanone] | 7.28 |
| O=C(N1CC2(CC(Cc3n[nH]c(C(F)(F)F)n3)C2)C1)N1CC2(CC(n3cnc(C(F)(F)F)n3)C2)C1 [Example 9, [6-[3-(trifluoromethyl)-1,2,4-triazol-1-yl]-2-azaspiro[3.3]heptan-2-yl]-[6-[[5-(trifluoromethyl)-1H-1,2,4-triazol-3-yl]methyl]-2-azaspiro[3.3]heptan-2-yl]methanone] | 8.15 |
| N=S(=O)(c1cnn(CC2CC3(C2)CN(C(=O)N2CC4(CC(n5cnc(C(F)F)n5)C4)C2)C3)c1)C(F)(F)F (stereo not drawn) [Example 324, [6-[3-(difluoromethyl)-1,2,4-triazol-1-yl]-2-azaspiro[3.3]heptan-2-yl]-[6-[[4-(trifluoromethylsulfonimidoyl)pyrazol-1-yl]methyl]-2-azaspiro[3.3]heptan-2-yl]methanone] | 7.59 |
| O=C(N1CC2(CC(n3cnc(C4CC4)n3)C2)C1)N1CC2(CN(Cc3cc(C(F)(F)F)[nH]n3)C2)C1 [Example 242, [6-(3-cyclopropyl-1,2,4-triazol-1-yl)-2-azaspiro[3.3]heptan-2-yl]-[6-[[5-(trifluoromethyl)-1H-pyrazol-3-yl]methyl]-2,6-diazaspiro[3.3]heptan-2-yl]methanone] | 8.43 |
| O=C(N1CC2(CC(c3cc(C4CC4)n[nH]3)C2)C1)N1CC2(CN(Cc3ncc(C(F)(F)F)s3)C2)C1 [Example 147, [6-(3-cyclopropyl-1H-pyrazol-5-yl)-2-azaspiro[3.3]heptan-2-yl]-[6-[[5-(trifluoromethyl)thiazol-2-yl]methyl]-2,6-diazaspiro[3.3]heptan-2-yl]methanone] | 8.98 |
| Cn1ncc(C(F)(F)F)c1CN1CC2(C1)CN(C(=O)N1CC3(CC(n4cnc(C5CC5)n4)C3)C1)C2 [Example 159, [6-(3-cyclopropyl-1,2,4-triazol-1-yl)-2-azaspiro[3.3]heptan-2-yl]-[6-[[2-methyl-4-(trifluoromethyl)pyrazol-3-yl]methyl]-2,6-diazaspiro[3.3]heptan-2-yl]methanone] | 8.66 |
| O=C(N1CC2(CC(n3cnc(C4CC4)n3)C2)C1)N1CC2(CN(Cc3ncc(C(F)(F)F)[nH]3)C2)C1 [Example 232, [6-(3-cyclopropyl-1,2,4-triazol-1-yl)-2-azaspiro[3.3]heptan-2-yl]-[6-[[5-(trifluoromethyl)-1H-imidazol-2-yl]methyl]-2,6-diazaspiro[3.3]heptan-2-yl]methanone] | 7.10 |
| Cc1nc(C(F)(F)F)c(CN2CC3(C2)CN(C(=O)N2CC4(CC(n5cnc(C(F)(F)F)n5)C4)C2)C3)s1 [Example 85] | 7.43 |
| Cc1nc(C)c(CN2CC3(C2)CN(C(=O)N2CC4(CC(n5cnc(C6CC6)n5)C4)C2)C3)s1 [Example 302, [6-(3-cyclopropyl-1,2,4-triazol-1-yl)-2-azaspiro[3.3]heptan-2-yl]-[6-[(2,4-dimethylthiazol-5-yl)methyl]-2,6-diazaspiro[3.3]heptan-2-yl]methanone] | 8.01 |
| O=C(N1CC2(CC(n3cnc(C(F)(F)F)n3)C2)C1)N1CC2(CN(Cc3nccn3C(F)(F)F)C2)C1 [Example 235, [6-[[1-(trifluoromethyl)imidazol-2-yl]methyl]-2,6-diazaspiro[3.3]heptan-2-yl]-[6-[3-(trifluoromethyl)-1,2,4-triazol-1-yl]-2-azaspiro[3.3]heptan-2-yl]methanone] | 7.16 |
| O=C(N1CC2(CC(n3cnc(C4CC4)n3)C2)C1)N1CC2(CN(Cc3ccnn3C(F)(F)F)C2)C1 [Example 226, [6-(3-cyclopropyl-1,2,4-triazol-1-yl)-2-azaspiro[3.3]heptan-2-yl]-[6-[[2-(trifluoromethyl)pyrazol-3-yl]methyl]-2,6-diazaspiro[3.3]heptan-2-yl]methanone] | 7.46 |
| O=C(N1CC2(CC(n3cnc(C4(O)CC4)n3)C2)C1)N1CC2(CN(Cc3cnc(C(F)(F)F)s3)C2)C1 [Example 19] | 7.46 |
| Cn1nc(C(F)(F)F)cc1CN1CCC2(CC1)CN(C(=O)N1CC3(CC(n4cnc(C5CC5)n4)C3)C1)C2 [Example 26, [6-(3-cyclopropyl-1,2,4-triazol-1-yl)-2-azaspiro[3.3]heptan-2-yl]-[7-[[2-methyl-5-(trifluoromethyl)pyrazol-3-yl]methyl]-2,7-diazaspiro[3.5]nonan-2-yl]methanone] | 8.47 |
| O=C(N1CC2(CC(Cn3nccc3C(F)(F)F)C2)C1)N1CC2(CC(n3cnc(C4(O)CC4)n3)C2)C1 [Example 4] | 8.76 |

More lines, in order of rising pIC50, values ahead:

| pIC50 | Compound |
| --- | --- |
| 5.92 | O=C(N1CC2(CC(n3cnc(C(F)(F)F)n3)C2)C1)N1CC2(CN(Cc3nc(C(F)(F)F)n[nH]3)C2)C1 [Example 229, [6-[3-(trifluoromethyl)-1,2,4-triazol-1-yl]-2-azaspiro[3.3]heptan-2-yl]-[6-[[3-(trifluoromethyl)-1H-1,2,4-triazol-5-yl]methyl]-2,6-diazaspiro[3.3]heptan-2-yl]methanone] |
| 6.01 | Cn1ncc(CN2CC3(C2)CN(C(=O)N2CC4(CC(n5cnc(C(F)(F)F)n5)C4)C2)C3)c1S(N)(=O)=O [Example 250, 2-methyl-4-[[2-[6-[3-(trifluoromethyl)-1,2,4-triazol-1-yl]-2-azaspiro[3.3]heptane-2-carbonyl]-2,6-diazaspiro[3.3]heptan-6-yl]methyl]pyrazole-3-sulfonamide] |
| 7.23 | CC(C)(C)n1ccnc1CN1CC2(C1)CN(C(=O)N1CC3(CC(n4cnc(C(F)(F)F)n4)C3)C1)C2 [Example 319, [6-[(1-tert-butylimidazol-2-yl)methyl]-2,6-diazaspiro[3.3]heptan-2-yl]-[6-[3-(trifluoromethyl)-1,2,4-triazol-1-yl]-2-azaspiro[3.3]heptan-2-yl]methanone] |
| 7.35 | O=C(N1CC2(CCN(Cc3nc(C(F)(F)F)cs3)CC2)C1)N1CC2(CC(n3cnc(C(F)(F)F)n3)C2)C1 [Example 176, [7-[[4-(trifluoromethyl)thiazol-2-yl]methyl]-2,7-diazaspiro[3.5]nonan-2-yl]-[6-[3-(trifluoromethyl)-1,2,4-triazol-1-yl]-2-azaspiro[3.3]heptan-2-yl]methanone] |
| 7.69 | Cn1nc(C(F)(F)F)cc1CN1CC2(C1)CN(C(=O)N1CC3(CC(n4cnc(C(F)(F)F)n4)C3)C1)C2 [Example 166] |
| 7.87 | CC(C)(C)n1nccc1CN1CC2(C1)CN(C(=O)N1CC3(CC(n4cnc(C5CC5)n4)C3)C1)C2 [Example 276, [6-[(2-tert-butylpyrazol-3-yl)methyl]-2,6-diazaspiro[3.3]heptan-2-yl]-[6-(3-cyclopropyl-1,2,4-triazol-1-yl)-2-azaspiro[3.3]heptan-2-yl]methanone] |
| 7.96 | O=C(N1CC2(CC(n3cnc(C4(O)CC4)n3)C2)C1)N1CC2(CN(Cc3ncc(C(F)(F)F)s3)C2)C1 [Example 148, [6-[3-(1-hydroxycyclopropyl)-1,2,4-triazol-1-yl]-2-azaspiro[3.3]heptan-2-yl]-[6-[[5-(trifluoromethyl)thiazol-2-yl]methyl]-2,6-diazaspiro[3.3]heptan-2-yl]methanone] |
| 8.31 | Cn1nc(C2CC2)cc1CN1CC2(C1)CN(C(=O)N1CC3(CC(c4cc(C5CC5)n[nH]4)C3)C1)C2 [Example 270, [6-[(5-cyclopropyl-2-methyl-pyrazol-3-yl)methyl]-2,6-diazaspiro[3.3]heptan-2-yl]-[6-(3-cyclopropyl-1H-pyrazol-5-yl)-2-azaspiro[3.3]heptan-2-yl]methanone] |
| 8.49 | O=C(N1CC2(CC(Cc3cc(C4CC4)[nH]n3)C2)C1)N1CC2(CC(n3cnc(C(F)F)n3)C2)C1 [Example 342, [6-[(5-cyclopropyl-1H-pyrazol-3-yl)methyl]-2-azaspiro[3.3]heptan-2-yl]-[6-[3-(difluoromethyl)-1,2,4-triazol-1-yl]-2-azaspiro[3.3]heptan-2-yl]methanone] |
| 8.99 | Cc1cc(C(F)F)n(CC2CC3(C2)CN(C(=O)N2CC4(CC(n5cnc(C(F)(F)F)n5)C4)C2)C3)n1 [Example 91, [6-[[5-(difluoromethyl)-3-methyl-pyrazol-1-yl]methyl]-2-azaspiro[3.3]heptan-2-yl]-[6-[3-(trifluoromethyl)-1,2,4-triazol-1-yl]-2-azaspiro[3.3]heptan-2-yl]methanone] |
| 9.49 | Cn1ncc(C(F)(F)F)c1CN1CCC2(CC1)CN(C(=O)N1CC3(CC(c4cc(C5CC5)n[nH]4)C3)C1)C2 [Example 64, [6-(3-cyclopropyl-1H-pyrazol-5-yl)-2-azaspiro[3.3]heptan-2-yl]-[7-[[2-methyl-4-(trifluoromethyl)pyrazol-3-yl]methyl]-2,7-diazaspiro[3.5]nonan-2-yl]methanone] |
